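Exposure lasted 48 hours, with cells grown in 96-well plates and compounds tested at five concentrations. GI50 = concentration required for 50% inhibition of growth. The concentration for full growth arrest is given as TGI.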
Tests used:
Experiment in all cases: inhibition of tumour cell growth, NCI panel, 48 h
SF-539 CNS = system: SF-539 CNS
PC-3 prostate = system: PC-3 prostate
U251 CNS = system: U251 CNS
SNB-75 CNS = system: SNB-75 CNS
RXF 393 renal = system: RXF 393 renal
UACC-62 melanoma = system: UACC-62 melanoma
MCF7 breast = system: MCF7 breast
HCC-2998 colon = system: HCC-2998 colon
OVCAR-8 ovarian = system: OVCAR-8 ovarian
HT29 colon = system: HT29 colon
EKVX NSCLC = system: EKVX NSCLC
SR leukemia = system: SR leukemia
NCI-H226 lung = system: NCI-H226 lung
HOP-92 NSCLC = system: HOP-92 NSCLC
MOLT-4 leukemia = system: MOLT-4 leukemia
NCI-H522 lung = system: NCI-H522 lung
SK-MEL-5 melanoma = system: SK-MEL-5 melanoma
TK-10 renal = system: TK-10 renal
K-562 leukemia = system: K-562 leukemia
SK-MEL-28 melanoma = system: SK-MEL-28 melanoma
A498 renal = system: A498 renal
RPMI-8226 leukemia = system: RPMI-8226 leukemia
ACHN renal = system: ACHN renal
SK-MEL-2 melanoma = system: SK-MEL-2 melanoma
SF-295 CNS = system: SF-295 CNS
HCT-116 colon = system: HCT-116 colon
KM12 colon = system: KM12 colon
IGROV1 ovarian = system: IGROV1 ovarian
UACC-257 melanoma = system: UACC-257 melanoma
DU-145 prostate = system: DU-145 prostate
BT-549 breast = system: BT-549 breast
COLO 205 colon = system: COLO 205 colon
A549 NSCLC = system: A549 NSCLC
NCI-H460 lung = system: NCI-H460 lung
HL-60(TB) leukemia = system: HL-60(TB) leukemia
SNB-19 CNS = system: SNB-19 CNS
NCI/ADR-RES ovarian = system: NCI/ADR-RES ovarian
OVCAR-3 ovarian = system: OVCAR-3 ovarian
NCI-H23 lung = system: NCI-H23 lung
CCRF-CEM leukemia = system: CCRF-CEM leukemia
HOP-62 NSCLC = system: HOP-62 NSCLC
HCT-15 colon = system: HCT-15 colon
786-0 renal = system: 786-0 renal
CAKI-1 renal = system: CAKI-1 renal
SF-268 CNS = system: SF-268 CNS
SK-OV-3 ovarian = system: SK-OV-3 ovarian
OVCAR-4 ovarian = system: OVCAR-4 ovarian
M14 melanoma = system: M14 melanoma
MDA-MB-435 = system: MDA-MB-435
UO-31 renal = system: UO-31 renal
T-47D breast = system: T-47D breast
OVCAR-5 ovarian = system: OVCAR-5 ovarian
SN12C renal = system: SN12C renal
MALME-3M melanoma = system: MALME-3M melanoma
MDA-MB-468 breast = system: MDA-MB-468 breast

Cn1cc(-c2cc3nc(-c4cn(C)c5ncc(Br)cc45)cc(N)n3n2)c2ccccc21
GI50 (SF-539 CNS): 14.1 µM | TGI (SF-539 CNS): 28.7 µM | GI50 (PC-3 prostate): 6.58 µM | TGI (PC-3 prostate): > 100 µM | GI50 (U251 CNS): 5.65 µM | TGI (U251 CNS): 27.4 µM | GI50 (SNB-75 CNS): 11.9 µM | TGI (SNB-75 CNS): 58.2 µM | GI50 (RXF 393 renal): 6.13 µM | TGI (RXF 393 renal): 19.3 µM | GI50 (UACC-62 melanoma): 11.5 µM | TGI (UACC-62 melanoma): 24.8 µM | GI50 (MCF7 breast): 5.31 µM | TGI (MCF7 breast): 27.3 µM | GI50 (HCC-2998 colon): 3.74 µM | TGI (HCC-2998 colon): 13.9 µM | GI50 (OVCAR-8 ovarian): 21.8 µM | TGI (OVCAR-8 ovarian): 85.9 µM | GI50 (HT29 colon): 5.65 µM | TGI (HT29 colon): 20.4 µM | GI50 (EKVX NSCLC): 10.1 µM | TGI (EKVX NSCLC): 27.1 µM | GI50 (SR leukemia): 2.46 µM | TGI (SR leukemia): > 100 µM | GI50 (NCI-H226 lung): 15.1 µM | TGI (NCI-H226 lung): 62.7 µM | GI50 (HOP-92 NSCLC): 4.97 µM | TGI (HOP-92 NSCLC): 25.1 µM | GI50 (MOLT-4 leukemia): 3.52 µM | TGI (MOLT-4 leukemia): 30.9 µM | GI50 (NCI-H522 lung): 12.8 µM | TGI (NCI-H522 lung): 32.7 µM | GI50 (SK-MEL-5 melanoma): 15.1 µM | TGI (SK-MEL-5 melanoma): 28.4 µM | GI50 (TK-10 renal): 13.8 µM | TGI (TK-10 renal): 44.9 µM | GI50 (K-562 leukemia): 2.94 µM | TGI (K-562 leukemia): > 100 µM | GI50 (SK-MEL-28 melanoma): 15.2 µM | TGI (SK-MEL-28 melanoma): 29.1 µM | GI50 (A498 renal): 8.84 µM | TGI (A498 renal): 23.7 µM | GI50 (RPMI-8226 leukemia): 13.6 µM | TGI (RPMI-8226 leukemia): > 100 µM | GI50 (ACHN renal): 13.5 µM | TGI (ACHN renal): 45.6 µM | GI50 (SK-MEL-2 melanoma): 11.2 µM | TGI (SK-MEL-2 melanoma): 26.7 µM | GI50 (SF-295 CNS): 13.5 µM | TGI (SF-295 CNS): 31.1 µM | GI50 (HCT-116 colon): 7.98 µM | TGI (HCT-116 colon): 27.6 µM | GI50 (KM12 colon): 6.04 µM | TGI (KM12 colon): 26.7 µM | GI50 (IGROV1 ovarian): 11.7 µM | TGI (IGROV1 ovarian): 32.6 µM | GI50 (UACC-257 melanoma): 14 µM | TGI (UACC-257 melanoma): 30.4 µM | GI50 (DU-145 prostate): 21.4 µM | TGI (DU-145 prostate): > 100 µM | GI50 (BT-549 breast): 19.5 µM | TGI (BT-549 breast): 47.8 µM | GI50 (COLO 205 colon): 16.8 µM | TGI (COLO 205 colon): 33.8 µM | GI50 (A549 NSCLC): 9.25 µM | TGI (A549 NSCLC): > 100 µM | GI50 (NCI-H460 lung): 7.78 µM | TGI (NCI-H460 lung): 28.1 µM | GI50 (HL-60(TB) leukemia): 3.53 µM | TGI (HL-60(TB) leukemia): 32.6 µM | GI50 (SNB-19 CNS): 17.8 µM | TGI (SNB-19 CNS): 41.9 µM | GI50 (NCI/ADR-RES ovarian): 17.4 µM | TGI (NCI/ADR-RES ovarian): 76.1 µM | GI50 (OVCAR-3 ovarian): 13.5 µM | TGI (OVCAR-3 ovarian): 28.5 µM | GI50 (NCI-H23 lung): 15.7 µM | TGI (NCI-H23 lung): 41.3 µM | GI50 (CCRF-CEM leukemia): 3.52 µM | TGI (CCRF-CEM leukemia): > 100 µM | GI50 (HOP-62 NSCLC): 14.8 µM | TGI (HOP-62 NSCLC): 46.5 µM | GI50 (HCT-15 colon): 2.53 µM | TGI (HCT-15 colon): 6.94 µM | GI50 (786-0 renal): 13.4 µM | TGI (786-0 renal): 33.3 µM | GI50 (CAKI-1 renal): 12.7 µM | TGI (CAKI-1 renal): 48.1 µM | GI50 (SF-268 CNS): 13.1 µM | TGI (SF-268 CNS): 89.6 µM | GI50 (SK-OV-3 ovarian): 20.4 µM | TGI (SK-OV-3 ovarian): 59.6 µM | GI50 (OVCAR-4 ovarian): 17.1 µM | TGI (OVCAR-4 ovarian): 59.7 µM | GI50 (M14 melanoma): 15.3 µM | TGI (M14 melanoma): 38.1 µM | GI50 (MDA-MB-435): 16.4 µM | TGI (MDA-MB-435): 34.1 µM | GI50 (UO-31 renal): 13.1 µM | TGI (UO-31 renal): 45.8 µM | GI50 (T-47D breast): 7.38 µM | TGI (T-47D breast): 30.4 µM | GI50 (OVCAR-5 ovarian): 14.5 µM | TGI (OVCAR-5 ovarian): 35.1 µM | GI50 (SN12C renal): 12.8 µM | TGI (SN12C renal): 27.9 µM | GI50 (MALME-3M melanoma): 16.8 µM | TGI (MALME-3M melanoma): 32.7 µM | GI50 (MDA-MB-468 breast): 3.71 µM | TGI (MDA-MB-468 breast): 15.6 µM
